Data from patent US7132417B2, “2-phenyl-1-[4-(2-aminoethoxy)-benzyl]-indoles as estrogenic agents” (Wyeth, priority 1996, dated 2006).

Tests used:
estrogen receptor [1] = target: T1, estrogen receptor (Homo sapiens, UniProt P03372); assay: 2X VIT ERE infection (luciferase) assay; type: cell-based; design: expressed in transfected cells; host or cells: Chinese Hamster Ovary cells (CHO), stably transfected; conditions: for Infection Luciferase Activity 1 uM + 17β estradiol: 1 uM compound + 1 nM 17β-estradiol (test for estrogen antagonism); for Infection Luciferase Activity 1 uM: 1 uM compound, percentage of activity as compared to 17β-estradiol
T1 sequence (P03372 1-595): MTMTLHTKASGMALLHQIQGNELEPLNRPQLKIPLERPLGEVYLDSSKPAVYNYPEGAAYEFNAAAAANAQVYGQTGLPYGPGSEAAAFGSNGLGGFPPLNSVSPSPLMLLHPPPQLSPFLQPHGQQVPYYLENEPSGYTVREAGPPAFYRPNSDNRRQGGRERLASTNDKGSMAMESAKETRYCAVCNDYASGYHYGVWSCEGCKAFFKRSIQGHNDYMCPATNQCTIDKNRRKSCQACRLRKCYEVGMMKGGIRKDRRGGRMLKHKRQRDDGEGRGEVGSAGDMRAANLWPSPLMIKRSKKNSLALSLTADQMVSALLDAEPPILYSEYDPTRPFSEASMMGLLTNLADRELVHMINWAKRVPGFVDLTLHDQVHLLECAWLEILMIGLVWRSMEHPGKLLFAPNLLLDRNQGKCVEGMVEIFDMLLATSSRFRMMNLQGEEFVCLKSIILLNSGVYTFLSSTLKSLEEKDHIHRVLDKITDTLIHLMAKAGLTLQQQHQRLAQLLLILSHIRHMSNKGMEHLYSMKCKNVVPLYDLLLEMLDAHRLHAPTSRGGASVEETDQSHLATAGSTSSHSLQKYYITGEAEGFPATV
Protocol: Method No. 18 2X VIT ERE Infection Assay Cell Maintenance and Treatment
Chinese Hamster Ovary cells (CHO) which had been stably transfected with the human estrogen receptor were maintained in DMEM+10% fetal bovine serum (FBS). 48 h prior to treatment the growth medium was replaced with DMEM lacking phenol red +10% dextran coated charcoal stripped FBS (treatment medium). Cells were plated at a density of 5000 cells/well in 96-well plates containing 200 µL of medium/well.
Reporter DNA (Promega plasmid pGL2 containing two tandem copies of the vitellogenin ERE in front of the minimal thymidine kinase promoter driving the luciferase gene) was combined with the B-galactosidase expression plasmid pCH110 (Pharmacia) and carrier DNA (pTZ18U) in the following ratio:
20 uL of this mixture was added to each well of cells and remained on the cells for 16 h. […] Each treatment condition was performed on 8 wells (n=8) which were incubated for 24 h prior to the luciferase assay.
After removing the PBS, 25 uL of Promega lysis buffer was added to each well and allowed to stand at room temperature for 15 min, followed by 15 min at −80° C. and 15 min at 37° C. 20 uL of lysate was transferred to an opaque 96 well plate for luciferase activity evaluation and the remaining lysate (5 uL) was used for the B-galactosidase activity evaluation (normalize transfection). The luciferan substrate (Promega) was added in 100 uL aliquots to each well automatically by the luminometer and the light produced (relative light units) was read 10 seconds after addition.
To the remaining 5 uL of lysate 45 uL of PBS was added. Then 50 uL of Promega B-galactosidase 2× assay buffer was added, mixed well and incubated at 37° C. for 1 hour. A plate containing a standard curve (0.1 to 1.5 milliunits in triplicate) was set up for each experimental run. The plates were analyzed on a Molecular Devices spectrophotometric plate reader at 410 nm. The optical densities for the unknown were converted to milliunits of activity by mathematical extrapolation from the standard curve.
The luciferase data was generated as relative light units (RLUs) accumulated during a 10 second measurement and automatically transferred to a JMP (SAS Inc) file where background RLUs were subtracted. The B-galactosidase values were automatically imported into the file and these values were divided into the RLUs to normalize the data. The mean and standard deviations were determined from a n=8 for each treatment. […] These techniques are described by Tzukerman, M. T., Esty, A., Santiso-Mere, D., Danielian, P., Parker, M. G., Stein, R. B., Pike, J. W. and McDonnel, D. P. (1994).

[2] = test system: Immature Sprague-Dawley rats; assay: Rat uterotrophic/antiuterotrophic bioassay; type: in vivo; conditions: daily ip; for Uterine wt mg 100 uG cmpd + 1 uG 17β-estradiol: 100 uG compound + 1 uG 17β-estradiol; for Uterine wt mg 100 uG cmpd: 100 uG compound, immature female rats, uterine wet weight
Protocol: Method No. 19 Rat Uterotrophic/Antiuterotrophic Bioassay
The estrogenic and antiestrogenic properties of the compounds were determined in an immature rat uterotrophic assay (4 day) that (as described previously by L. J. Black and R. L. Goode, Life Sciences, 26, 1453(1980)). Immature Sprague-Dawley rats (female, 18 days old) were tested in groups of six. […] On day 4 the animals were sacrificed by CO2 asphyxiation and their uteri were removed and stripped of excess lipid, any fluid removed and the wet weight determined. A small section of one horn was submitted for histology and the remainder used to isolate total RNA in order to evaluate complement component 3 gene expression.

estrogen receptor [3] = target: T1, estrogen receptor; assay: In vitro estrogen receptor binding assay ([3H]-17β-estradiol competition); design: expressed in transfected cells; host or cells: CHO cells (100,000 g cytosol); conditions: read-out: Receptor Binding IC50's
Protocol: In Vitro Estrogen Receptor Binding Assay
CHO cells overexpressing the estrogen receptor were grown in 150 mm^2 dishes in DMEM+10% dextran coated charcoal, stripped fetal bovine serum. The plates were washed twice with PBS and once with 10 mM Tris-HCl, pH 7.4, 1 mM EDTA. Cells were harvested by scraping the surface and then the cell suspension was placed on ice. Cells were disrupted with a hand-held motorized tissue grinder using two, 10-second bursts. […] The cytosol was then frozen and stored at −80° C. Protein concentration of the cytosol was estimated using the BCA assay with reference standard protein.
100 uG/100 uL of the receptor preparation was aliquoted per well. […] The plate was incubated at room temperature for 2.5 h. […] 200 uL of the supernatant solution was then removed for scintillation counting. Samples were counted to 2% or 10 minutes, whichever occurs first. […] Also, wells containing radioactivity but no cytosol were processed with charcoal to estimate unremovable DPM of [^3H]
Counts per minute (CPM) of radioactivity were automatically converted to disintegrated per minute (DPM) by the Beckman LS 7500 Scintillation Counter using a set of quenched standards to generate a H No. for each sample.
For the generation of IC50 curves, % binding is plotted vs compound. […] For a description of these methods, see Hulme, E. C., ed. […] Receptor-Ligand Interactions: A Practical Approach. IRL Press, New York. (see especially chapter 8).

Ishikawa cells = assay: Ishikawa cell alkaline phosphatase assay; type: cell-based, human; conditions: for % Activation with 1 nM 17β-estradiol: compound + 1 nM 17β-estradiol (antiestrogen test); for % Activation: compound alone, percent of response related to 1 nM 17β-estradiol; for EC50: reference standards, read-out: ED50 values (95% C.I.), estrogenic activity by the alkaline phosphatase method
Protocol: Cells were treated for 48 h prior to assay. […] Sample population for at each dose was n=8. […] Plates are placed at -80° C. for a minimum of 15 minutes. Plates are thawed at 37° C. followed by the addition of 150 μL of 0.1 M Tris-HCl, pH 9.8, containing 4 mM para-nitrophenylphosphate (pNPP) to each well (final concentration, 3 mM pNPP). Absorbance and slope calculations were made using the […] Application program (Bio-Tek Instruments, Inc., Winooski, Vt.). […] The four listed in the following were used as reference standards: A description of these methods is described by Holinka, […]., Kuramoto, H. and Gurpide, E. (1986) Effects of steroid hormones and antisteroids on alkaline phosphatase activity in human endometrial cancer cells (Ishikawa Line). Cancer Research, 46:2771-2774, and by […]. and […] simple and sensitive microtiter plate estrogen bioassay based on stimulation alkaline phosphatase in Ishikawa cells; […] Endocrinology, 6:2757-2762.

[4] = test system: Female Sprague Dawley CD rats, ovx; assay: 6-week ovariectomized rat model; type: in vivo; conditions: 2 μg/rat, s.c., following 6 weeks of treatment, mean ± SEM
Source text: Method No. 20 6-Week Ovariectomized Rat Model
Female Sprague Dawley CD rats, ovx or sham ovx, were obtained 1 day after surgery from Taconic Farm (weight range 240–275 g). They were housed 3 or 4 rats/cage in a room on a 14/10 (light/dark) schedule and provided with food (Purina 500 rat chow) and water ad libitum. Treatment for all studies began 1 day after the animals arrival and dosed 5 or 7 days per week as indicated for 6 weeks. A group of age matched sham operated rats not receiving any treatment served as an intact, estrogen replete control group for each study. All treatments were prepared in 1% tween 80 in normal saline at defined concentrations so that the treatment volume was 0.1 mL/100 g body weight. 17-beta estradiol was dissolved in corn oil (20 uG/mL) and delivered subcutaneously, 0.1 mL/rat. All dosages were adjusted at three week intervals according to group mean body weight measurements.
Five weeks after the initiation of treatment and one week prior to the termination of the study, each rat was evaluated for bone mineral density (BMD). The BMD's of the proximal tibiae (PT) and fourth lumbar vertabrae (L4) were measured in anesthetized rats using a dual energy X-ray absorptiometer (Eclipse XR-26, Norland Corp. Ft. Atkins, Wis.). […] Total cholesterol is determined using a Boehringer-Mannheim Hitachi 911 clinical analyzer using the Cholesterol/HP kit. […]

Row | Compound | Uterine wt mg 100 uG cmpd + 1 uG 17β-estradiol [2] | Uterine wt mg 100 uG cmpd [2] | % Activation with 1 nM 17β-estradiol (Ishikawa cells) | also measured
1 | Cc1c(-c2ccccc2)n(Cc2ccc(OCCN3CCCCC3)cc2)c2ccccc12 [compound 85, 4-{3-Methyl-1-[4-(2-piperidin-1-yl-ethoxy)-benzyl]-1H-indole}] | 92.4 mg | 41.1 mg | – | Infection Luciferase Activity 1 uM + 17β estradiol (estrogen receptor [1]): 43%; Infection Luciferase Activity 1 uM (estrogen receptor [1]): −2%
2 | Cc1c(-c2ccc(OC3CCCC3)cc2)n(Cc2ccc(OCCN3CCCCC3)cc2)c2ccc(O)cc12 [compound 122, 2-(4-Cyclopenyloxy-phenyl)-3-methyl-1-[4-(2-piperidin-1-yl-ethoxy)-benzyl]-1H-indol-5-ol] | 38.7 mg | 46.7 mg | – | Infection Luciferase Activity 1 uM + 17β estradiol (estrogen receptor [1]): 5%; Infection Luciferase Activity 1 uM (estrogen receptor [1]): 1%; IC50 (estrogen receptor [3]): 80 nM
3 | Cc1c(-c2ccc(O)cc2)n(Cc2ccc(OCCN(C)C)cc2)c2ccc(O)cc12 [Example No. 100, 2-(4-Hydroxy-phenyl)-3-methyl-1-[4-(2-dimethyl-1-yl-ethoxy)-benzyl]-1H-indol-5-ol] | 68.7 mg | 59.9 mg | – | –
4 | O=C(c1ccc(OCCN2CCCCC2)cc1)c1c(-c2ccc(O)cc2)sc2cc(O)ccc12 [raloxifene] | – | – | activity (5% with 1 nM 17β-estradiol) | –
5 | Cc1c(-c2ccc(O)cc2)n(Cc2ccc(OCCN3CCCCCC3)cc2)c2ccc(O)cc12 [Example No. 98, 1-[4-(2-Azepan-1-yl-ethoxy)-benzyl]-2-(4-hydroxy-phenyl)-3-methyl-1H-indol-5-ol] | – | – | activity (1% with 1 nM 17β-estradiol) | –
6 | C[C@]12CC[C@@H]3c4ccc(O)cc4CC[C@H]3[C@@H]1CC[C@@H]2O [17β-estradiol] | – | – | – | Cholesterol [4]: 95.5 ± 3.9 mg/dL; % Activation (Ishikawa cells): 100%; EC50 (Ishikawa cells): 0.03 nM
7 | CC/C(=C(\c1ccccc1)c1ccc(OCCN(C)C)cc1)c1ccccc1 [tamoxifen] | – | 71.4 mg | activity (45% with 1 nM 17β-estradiol) | % Activation (Ishikawa cells): 0%
8 | C[C@]12CC[C@@H]3c4ccc(O)cc4CC[C@H]3[C@@H]1CC[C@H]2O [17α-estradiol] | – | – | – | EC50 (Ishikawa cells): 1.42 nM
9 | CCN(CC)CCOc1ccc(Cn2c(-c3ccc(O)cc3)c(C)c3cc(O)ccc32)cc1 [compound 101, 2-(4-Hydroxy-phenyl)-3-methyl-1-[4-(2-diethyl-1-yl-ethoxy)-benzyl]-1H-indol-5-ol] | 71.0 mg | 65.1 mg | – | –
